In patent US11738096B2, “Method of detecting diseased or damaged tissue with a pH-triggered polypeptide fluorophore composition” (University of Rhode Island Board of Trustees, priority 2016, dated 2023):
Where a SMILES comes first, the peptide text is derived from it. Where no end group is shown, it is not given here. The star is where a group is joined. X2 = CC1(C)C(/C=C/C2=C(Oc3ccc(S(=O)(=O)O)cc3)C(=C/C=C3/N(CCCCCC(=O)NCCN4C(=O)CC(*)C4=O)c4ccc(S(=O)(=O)O)cc4C3(C)C)/CCC2)=[N+](CCCCS(=O)(=O)O)c2ccc(S(=O)(=O)[O-])cc21; X1 = CC1(C)C(/C=C/C=C/C=C/C=C2/N(CCCCCC(=O)NCCN3C(=O)CC(*)C3=O)c3ccc4ccccc4c3C2(C)C)=[N+](CCCCS(=O)(=O)[O-])c2ccc3ccccc3c21; ICG maleimide = indocyanine green maleimide

Experiments:
[1] = residue X in AcWL-X-LL, relative to virtual glycine; cited from earlier work
[2] = cited from earlier work
[3] = test system: 4T1 murine mammary carcinoma; assay: Tumor targeting in mice bearing 4T1 tumors; assay type: in vivo, mouse; conditions: 20 μM, IV, 16 h
Protocol: Adult female nude mice and female BALB/cAnNHsd mice (Envigo), 20-25 g in body mass were used in the study. Mouse mammary cancer 4T1 cells were subcutaneously implanted in the right flank (8×10^5 cells/0.1 mL/flank) of adult female BALB/cAnNHsd mice. Rat bladder cancer AY27 cells were subcutaneously implanted in the right flank (8×10^5 cells/0.1 mL/flank) of adult female nude mice. When tumors reached approximately 5-6 mm in diameter, single tail vein injection or single intraperitoneal injection of fluorophore-pHLIP® solutions in PBS were performed. Fluorescent constructs were used in amounts of 100 μL of 40 μM, or 100 μL of 20 μM, or 100 μL of 10 μM, or 100 μL of 5 μM. Imaging of mouse was performed at 16 hours after constructs administration. Skin was removed from the tumor site just before imaging while animal was under gas anesthesia, and mice were euthanized immediately after imaging. Tumor, kidney and liver were harvested, imaged and used for histopathological analysis. Imaging was performed using Stryker clinical imaging instrument. Autofluorescence was established by imaging mouse with no injection of fluorescent constructs (the level of autofluorescence signal was insignificant compared to the signal after the constructs administration).

[4] = free ICG as used now; cited from earlier work
[5] = humans, high dose of 5 mg/kg of body weight; cited from earlier work
[6] = cited from earlier work; remark: listed apart in the source
[7] = NIR fluorescence imaging of blood vessels and blood flow (ear, leg, blood samples) in mice; assay type: in vivo, mouse; conditions: for fluorescent signal in blood samples: blood collected 5-120 min after IV injection; for imaging of blood vessels in ear and leg: IV 100 μL of 40 μM, 5, 30, 60, 90, 120 min
Protocol: Adult female nude mice (Envigo), 20 g in body mass were used in the study. Fluorescent constructs were given as a single tail vein injection in amounts of 100 μL of 40 μM in PBS. Imaging of mouse ear and leg was performed at 5, 30, 60, 90 and 120 min after construct administration. At 5, 30, 60, 90 and 120 min after construct administration 5 μL of blood was withdrawn from tail (and mixed with 5 μL of anticoagulating solution to preserve blood) while animal was under anesthesia. Mice were euthanized immediately after last imaging point (120 min). Blood collected from all animals was deposited on the glass slide, dried and imaged. Imaging was performed using Novadaq clinical imaging instrument. Autofluorescence was established by imaging mouse with no injection of fluorescent constructs (the level of autofluorescence signal was insignificant compared to the signal after the constructs administration).

Compound | ΔGX^cor, solvation free energy of the side chain [1] | also measured
N[C@@H](Cc1ccccc1)C(=O)O [Phe, Phenylalanine] | +2.86 kcal/mol | –
N[C@@H](CCC(=O)O)C(=O)O [Glu, Glutamic acid] | -2.48 kcal/mol | –
C#CCNC(=O)CCCCC[N+]1=C(/C=C/C=C/C=C/C=C2\N(CCCCS(=O)(=O)[O-])c3ccc4ccccc4c3C2(C)C)C(C)(C)c2c1ccc1ccccc21 [ICG-alkyne] | – | Solubility [2]: DMSO, DMF, Acetonitrile, Methanol
O=C(O)[C@@H]1CCCN1 [Pro, Proline] | +1.01 kcal/mol | –
CSCC[C@H](N)C(=O)O [Met, Methionine] | +1.82 kcal/mol | –
CC(C)C[C@H](NC(=O)[C@H](Cc1ccc(O)cc1)NC(=O)[C@H](C)NC(=O)[C@H](CCCNC(=N)N)NC(=O)[C@H](Cc1c[nH]c2ccccc12)NC(=O)[C@@H]1CCCN1C(=O)[C@H](CC(N)=O)NC(=O)[C@H](CCC(N)=O)NC(=O)[C@H](CC(=O)O)NC(=O)[C@H](CC(=O)O)NC(=O)[C@H](CSC1CC(=O)N(CCNC(=O)CCCCCN2/C(=C/C=C3\CCCC(/C=C/C4=[N+](CCCCS(=O)(=O)O)c5ccc(S(=O)(=O)[O-])cc5C4(C)C)=C3Oc3ccc(S(=O)(=O)O)cc3)C(C)(C)c3cc(S(=O)(=O)O)ccc32)C1=O)NC(=O)[C@H](C)N)C(=O)N[C@@H](CC(=O)O)C(=O)N[C@@H](CC(C)C)C(=O)N[C@@H](CC(C)C)C(=O)N[C@@H](Cc1ccccc1)C(=O)N1CCC[C@H]1C(=O)N[C@H](C(=O)N[C@@H](CC(=O)O)C(=O)N[C@H](C(=O)N[C@@H](CC(C)C)C(=O)N[C@@H](CC(C)C)C(=O)N[C@@H](CC(C)C)C(=O)N[C@@H](CC(=O)O)C(=O)N[C@@H](CC(C)C)C(=O)N[C@@H](CC(C)C)C(=O)N[C@@H](Cc1c[nH]c2ccccc12)C(=O)N[C@@H](C)C(=O)O)[C@@H](C)O)[C@@H](C)O (some centres unmarked) [IR800-Var3] (H-AC(X2)DDQNPWRAYLDLLFPTDTLLLDLLWA-OH) | – | organ of clearance [3]: cleared by the kidney
N[C@@H](Cc1ccc(O)cc1)C(=O)O [Tyr, Tyrosine] | +1.86 kcal/mol | –
N[C@@H](CO)C(=O)O [Ser, Serine] | +0.69 kcal/mol | –
NC(=O)C[C@H](N)C(=O)O [Asn, Asparagine] | +0.30 kcal/mol | –
CC1(C)C(/C=C/C=C/C=C/C=C2\N(CCCCS(=O)(=O)[O-])c3ccc4ccccc4c3C2(C)C)=[N+](CCCCS(=O)(=O)[O-])c2ccc3ccccc3c21.[Na+] [ICG, indocyanine green] | – | imaging time [4]: 2 to 5 min; toxic effects [5]: No significant toxic effects; time of appearance unconjugated in the bile ([6]; after intravenous injection): about 8 min; half-life time ([6]; following intravenous injection): 2.5 min; time to reach the nearest draining lymph node ([6]; injected outside blood vessels): ≤ 15 min
C[C@@H](O)[C@H](N)C(=O)O [Thr, Threonine] | +0.90 kcal/mol | –
N=C(N)NCCC[C@H](N)C(=O)O [Arg, Arginine] | -0.66 kcal/mol | –
CC[C@H](C)[C@H](NC(=O)[C@@H]1CCCN1C(=O)[C@H](CC(N)=O)NC(=O)[C@H](CCC(N)=O)NC(=O)[C@H](CCC(=O)O)NC(=O)[C@H](CSC1CC(=O)N(CCNC(=O)CCCCCN2/C(=C/C=C/C=C/C=C/C3=[N+](CCCCS(=O)(=O)[O-])c4ccc5ccccc5c4C3(C)C)C(C)(C)c3c2ccc2ccccc32)C1=O)NC(=O)[C@H](C)N)C(=O)N[C@@H](Cc1ccc(O)cc1)C(=O)N[C@@H](Cc1c[nH]c2ccccc12)C(=O)N[C@@H](C)C(=O)N[C@@H](CCCNC(=N)N)C(=O)N[C@@H](Cc1ccc(O)cc1)C(=O)N[C@@H](C)C(=O)N[C@@H](CC(N)=O)C(=O)N[C@@H](Cc1c[nH]c2ccccc12)C(=O)N[C@@H](CC(C)C)C(=O)N[C@@H](Cc1ccccc1)C(=O)N[C@H](C(=O)N[C@H](C(=O)N1CCC[C@H]1C(=O)N[C@@H](CC(C)C)C(=O)N[C@@H](CC(C)C)C(=O)N[C@@H](CC(C)C)C(=O)N[C@@H](CC(C)C)C(=O)N[C@@H](CC(N)=O)C(=O)N[C@@H](CC(C)C)C(=O)N[C@@H](C)C(=O)N[C@@H](CC(C)C)C(=O)N[C@@H](CC(C)C)C(=O)N[C@H](C(=O)N[C@@H](CC(=O)O)C(=O)N[C@@H](C)C(=O)N[C@@H](CC(=O)O)C(=O)N[C@@H](CCC(=O)O)C(=O)NCC(=O)N[C@H](C(=O)O)[C@@H](C)O)C(C)C)[C@@H](C)O)[C@@H](C)O (some centres unmarked) [ICG-NpHLIP®] (H-AC(X1)EQNPIYWARYANWLFTTPLLLLNLALLVDADEGT-OH) | – | fluorescent signal in blood samples [7]: significantly reduced signal
ICG-Hum pHLIP®: ICG maleimide conjugated to Cys of Hum pHLIP® GCDNNEGFFATLGGEIPLWSDVVLAIEG (SEQ ID NO: 446) (GC(ICG maleimide)DNNEGFFATLGGEIPLWSDVVLAIEG) | – | imaging of blood vessels in ear and leg [7]: slow in reaching the best imagibility condition and was fast in decaying
N[C@@H](Cc1c[nH]c2ccccc12)C(=O)O [Trp, Tryptophan] | +3.24 kcal/mol | –
IR800-WT: IR800 maleimide conjugated to Cys of WT pHLIP® peptide (SEQ ID NO: 444) (AC(IR800 maleimide)EQNPIYWARYADWLFTTPLLLLDLALLVDADEGT) | – | imaging of blood vessels in ear and leg [7]: better in imaging of blood vessels, however not nearly as good as ICG-WT and ICG-Var3 pHLIP®s
N[C@@H](CC(=O)O)C(=O)O [Asp, Aspartic acid] | -2.49 kcal/mol | –
CC(C)[C@H](N)C(=O)O [Val, Valine] | +1.61 kcal/mol | –
CC[C@H](C)[C@H](NC(=O)[C@@H]1CCCN1C(=O)[C@H](CC(N)=O)NC(=O)[C@H](CCC(N)=O)NC(=O)[C@H](CCC(=O)O)NC(=O)[C@H](CSC1CC(=O)N(CCNC(=O)CCCCCN2/C(=C/C=C/C=C/C=C/C3=[N+](CCCCS(=O)(=O)[O-])c4ccc5ccccc5c4C3(C)C)C(C)(C)c3c2ccc2ccccc32)C1=O)NC(=O)[C@H](C)N)C(=O)N[C@@H](Cc1ccc(O)cc1)C(=O)N[C@@H](Cc1c[nH]c2ccccc12)C(=O)N[C@@H](C)C(=O)N[C@@H](CCCNC(=N)N)C(=O)N[C@@H](Cc1ccc(O)cc1)C(=O)N[C@@H](C)C(=O)N[C@@H](CC(=O)O)C(=O)N[C@@H](Cc1c[nH]c2ccccc12)C(=O)N[C@@H](CC(C)C)C(=O)N[C@@H](Cc1ccccc1)C(=O)N[C@H](C(=O)N[C@H](C(=O)N1CCC[C@H]1C(=O)N[C@@H](CC(C)C)C(=O)N[C@@H](CC(C)C)C(=O)N[C@@H](CC(C)C)C(=O)N[C@@H](CC(C)C)C(=O)N[C@@H](CC(=O)O)C(=O)N[C@@H](CC(C)C)C(=O)N[C@@H](C)C(=O)N[C@@H](CC(C)C)C(=O)N[C@@H](CC(C)C)C(=O)N[C@H](C(=O)N[C@@H](CC(=O)O)C(=O)N[C@@H](C)C(=O)N[C@@H](CC(=O)O)C(=O)N[C@@H](CCC(=O)O)C(=O)NCC(=O)N[C@H](C(=O)O)[C@@H](C)O)C(C)C)[C@@H](C)O)[C@@H](C)O (some centres unmarked) [ICG-WT pHLIP®] | – | fluorescent signal in blood samples [7]: persistence of strong fluorescent signal within 2 hours
NCCCC[C@H](N)C(=O)O [Lys, Lysine] | -1.65 kcal/mol | –
N[C@@H](Cc1c[nH]cn1)C(=O)O [His, Histidine] | -1.18 kcal/mol | –
C[C@H](N)C(=O)O [Ala, Alanine] | +0.65 kcal/mol | –
